Experimental data from patent US20260007634A1, “PHARMACEUTICAL COMPOSITIONS FOR THE TREATMENT OF ALLERGIC DISEASES” (KINKI UNIVERSITY, priority 2022, published 2026).

What was measured:
Type in all cases: in vivo, mouse
IL-17 = test: Serum IL-17 ELISA, allergic rhinitis mice; settings: OVA allergic rhinitis; serum day 28; oral 10 mg/kg (dexamethasone 2 mg/kg); control 204, vehicle 945
Method: (§1) A 0.2 mL dose of 50 μg ovalbumin (OVA) and 2 mg Alum mixture was administered to 6-week-old female Balb/c mice (Japan SLC Inc.) (day 0 of the example). Alum was used as an adjuvant. Seven days later and 14 days later, the Balb/c mice were immunized again with 0.2 mL injections of the above mixture. Starting on day 20, mice were orally treated with 10 mg/kg of norathyriol, 10 mg/kg of mangiferin 8a, 10 mg/kg of tofacitinib (JAK inhibitor), 2 mg/kg of dexamethasone (steroid) and 10 mg/kg of olopatadine (antihistamine) daily for 8 consecutive days. Starting on day 21, 400 μg OVA was administered intranasally, and nose-scratching behavior was measured on day 27. Note that tofacitinib, dexamethasone, and olopatadine are currently in clinical use in allergic rhinitis and were used as control drugs in this example.
Serum was collected from day 28 mice in Examples 6 and 7, and IL-17 production was measured by enzyme-linked immunosorbent assay (ELISA). This assay was performed using a mouse IL-17 ELISA kit (R&D).

BAFF = test: Serum BAFF ELISA, food allergy mice; settings: OVA food allergy; serum day 28; oral 10 mg/kg (dexamethasone 2 mg/kg); control 134, vehicle 845
Method: A 0.2 mL dose of 10 μg ovalbumin (OVA) and 1 mg Alum mixture was administered to 6-week-old female Balb/c mice (Japan SLC Inc.) (day 0 of the example). Alum was used as an adjuvant. Seven days later, the Balb/c mice were immunized again with a 0.2 mL injection of the above mixture. Starting on day 14, mice were orally treated with 10 mg/kg of norathyriol, 10 mg/kg of mangiferin 8a, 10 mg/kg of tofacitinib (JAK inhibitor), 2 mg/kg of dexamethasone (steroid) and 10 mg/kg of olopatadine (antihistamine) daily for 14 consecutive days. Starting on day 14, 10 mg OVA was administered orally every other day […], and the frequency of diarrhea was measured after the final administration on day 28. Note that tofacitinib, dexamethasone, and olopatadine are currently in clinical use in food allergy and were used as control drugs in this example.
Serum was collected from day 28 mice in Examples 21, and BAFF production was measured by enzyme-linked immunosorbent assay (ELISA). This assay was performed using a mouse BAFF ELISA kit (R&D).

IL-5 [1] = test: Serum IL-5 ELISA, allergic rhinitis mice; settings: OVA allergic rhinitis; serum day 28; oral 10 mg/kg (dexamethasone 2 mg/kg); control 151, vehicle 1010
Method: as §1
Serum was collected from day 28 mice in Examples 6 and 7, and IL-5 production was measured by enzyme-linked immunosorbent assay (ELISA). This assay was performed using a mouse IL-5 ELISA kit (R&D).

IL-5 [2] = test: Serum IL-5 ELISA, bronchial asthma mice; settings: OVA bronchial asthma; serum day 28; oral 10 mg/kg (dexamethasone 2 mg/kg); control 80, vehicle 992
Method: as §1, with “cough” for “nose-scratching behavior”
Serum was collected from day 28 mice in Examples 14, and IL-5 production was measured by enzyme-linked immunosorbent assay (ELISA). This assay was performed using a mouse IL-5 ELISA kit (R&D).

IgE antibody = test: Serum IgE antibody ELISA, food allergy mice; settings: OVA food allergy; serum day 28; oral 10 mg/kg (dexamethasone 2 mg/kg); control 56, vehicle 124
Method: A 0.2 mL dose of 10 μg ovalbumin (OVA) and 1 mg Alum mixture was administered to 6-week-old female Balb/c mice (Japan SLC Inc.) (day 0 of the example). Alum was used as an adjuvant. Seven days later, the Balb/c mice were immunized again with a 0.2 mL injection of the above mixture. Starting on day 14, mice were orally treated with 10 mg/kg of norathyriol, 10 mg/kg of mangiferin 8a, 10 mg/kg of tofacitinib (JAK inhibitor), 2 mg/kg of dexamethasone (steroid) and 10 mg/kg of olopatadine (antihistamine) daily for 14 consecutive days. […]
Serum was collected from day 28 mice in Examples 21, and IgE antibody production was measured by enzyme-linked immunosorbent assay (ELISA). This assay was performed using a mouse IgE antibody ELISA kit (R&D).

[3] = tested on: Balb/c mice with cedar pollinosis; test: Sneezing, cedar pollinosis model mice; settings: oral daily 8 days from day 20, 10 mg/kg (dexamethasone 2 mg/kg), measured day 27, vs vehicle group
Method: A 0.2 mL dose of 100 μg cedar pollen and 1 mg Alum mixture was administered to 6-week-old female Balb/c mice (Japan SLC Inc.) (day 0 of the example). Alum was used as an adjuvant. Seven days later and 14 days later, the Balb/c mice were immunized again with 0.2 mL injections of the above mixture. Starting on day 20, mice were orally treated with 10 mg/kg of norathyriol, 10 mg/kg of mangiferin 8a, 10 mg/kg of tofacitinib (JAK inhibitor), 2 mg/kg of dexamethasone (steroid) and 10 mg/kg of olopatadine (antihistamine) daily for 8 consecutive days. Starting on day 21, 500 μg cedar pollen was administered intranasally, and sneezing was measured on day 27. Note that tofacitinib, dexamethasone, and olopatadine are currently in clinical use in cedar pollinosis and were used as control drugs in this example.
(§2) The group that was just immunized with cedar pollen is called the subject group, the one that received norathyriol is called the norathyriol group, the one that received mangiferin 8a is called the mangiferin 8a group, the one that received tofacitinib is called the tofacitinib group, the one that received dexamethasone is called the dexamethasone group, and the one that received olopatadine is called the olopatadine group. Each group consisted of five animals.

[4] = tested on: Balb/c mice with ovalbumin-induced bronchial asthma; test: Cough, ovalbumin-induced bronchial asthma mice; settings: OVA bronchial asthma; oral daily 8 days from day 20, 10 mg/kg (dexamethasone 2 mg/kg); measured day 27; vs vehicle group
Method: as §1, with “cough” for “nose-scratching behavior”
as §2, with “OVA” for “cedar pollen”

Structure (SMILES)	amount of IL-17 (IL-17)	amount of BAFF (BAFF)	amount of IL-5 (IL-5 [1])	amount of IL-5 (IL-5 [2])	amount of IgE antibody (IgE antibody)	number of sneezing [3]	number of coughs [4]
C[C@@H]1C[C@H]2[C@@H]3CCC4=CC(=O)C=C[C@]4(C)[C@@]3(F)[C@@H](O)C[C@]2(C)[C@@]1(O)C(=O)CO [dexamethasone]	227 pg/mL	251 pg/mL	314 pg/mL	286 pg/mL	36 ng/mL		
O=c1c2cc(O)c(O)cc2oc2cc(O)cc(O)c12 [norathyriol, 1,3,6,7-tetrahydroxyxanthone]	583 pg/mL	426 pg/mL	633 pg/mL	601 pg/mL	84 ng/mL	significantly decreased the number of sneezing	significantly decreased the number of coughs
C[C@@H]1CCN(C(=O)CC#N)C[C@@H]1N(C)c1ncnc2[nH]ccc12 [tofacitinib]	892 pg/mL	598 pg/mL	839 pg/mL	833 pg/mL	106 ng/mL	significantly decreased the number of sneezing	significantly decreased the number of coughs
CN(C)CC/C=C1/c2ccccc2COc2ccc(CC(=O)O)cc21 [olopatadine]	839 pg/mL	715 pg/mL	880 pg/mL	866 pg/mL	111 ng/mL	significantly decreased the number of sneezing	significantly decreased the number of coughs
